According to US11835499B2, “Methods of quantifying methylglyoxal-induced nucleic acid adducts” (CITY OF HOPE, priority 2018, dated 2023):

Assays:
[1] = Stability of CEdG in acidic solution (acid-catalyzed depurination and sidechain isomerization); type: physicochemical; conditions: acidic hydrolysis, 1 M AcOH at 37° C.
Procedure: A 1.25 mM solution of CEdG-A, B or dG in 100 μL of 1M AcOH (pH 2.4) was stirred at 37° C. Aliquots (10 μl) were removed periodically and added to 40 μL of 2M TEAA (pH 7.0). HPLC product analyses were performed using an Alltech HS HyperPrep 100 BDS C18 8μ column. A gradient of 0 to 4% CH3CN over 5 min was followed by 6.5% CH3CN over 30 min. TEAA (pH 7) was kept constant at 50 mM. The ratio of free base (CEGuanine or Guanine) to intact nucleoside (CEdG or dG) was calculated by integration of the corresponding HPLC peaks (see inset in FIG. 4). The CEG free base was identified as Peak A by ESI-MS in negative ion mode. C8H8O3N5, observed: m/z 222.064; calculated: m/z 222.063.
The chemical stability of CEdG was examined as an important criterion for evaluating its suitability as a quantitative biomarker. Purified stereoisomers of synthetic CEdG were subjected to acidic conditions (1 M AcOH at 37° C.) and the extent of released free base and diastereomer interconversion was monitored by HPLC as a function of time.

calf thymus DNA = experiment: Artifactual CEdG formation in calf thymus DNA during workup, with carbonyl scavenger
Procedure: Calf thymus or tissue-extracted DNA (100 μg) was dissolved in 80 μL of autoclaved 18.2 MΩ H2O containing 20 μL of sodium acetate (100 mM, pH 5.5), 20 μL of 1×TBE, 1.5 μL of 50 mM ZnCl2, and 2.37 μL of a 100 mM AG or D-P stock solution. DNA was denatured at 95° C. for 5 min on a PCR heating block and then brought to 4° C. for 5 min. After equilibration to 45° C., 1.5 μL of 10 U/μL nuclease P1 was added. Alkaline phosphatase (4 μL of 8 U/μL), 1 U of bovine phosphodiesterase, and 14 μL of 100 mM CaCl2 were added after 1 hour, and the hydrolysis/dephosphorylation was continued for another 7 hours. […] DNA concentrations were determined by UV spectroscopy (1 OD260=50 μg/ml) and samples were stored at −80° C. prior to MS analyses. A 5 μL aliquot of digest was diluted to 200 μL and used for quantitation of 2′-deoxyguanosine by HPLC integration using a Beckman C18 reverse phase (25 cm×4.6 mm) column (Fullerton, CA). […]
Commercial grade calf thymus DNA was used as a model substrate for developing a protocol for CEdG quantitation in double-stranded DNA. […] Concentrations of AG from 0.5 to 50 mM were added prior to workup, and CEdG levels were measured in order to determine the optimal concentration required to achieve stable, reproducible levels. […]

[2] = tested on: DNA extracted from breast tumor or adjacent tissue; experiment: Artifactual CEdG formation during DNA extraction from human breast tumor and adjacent tissue, with carbonyl scavenger; conditions: 10 mM D-penicillamine in two aliquots during cell lysis/DNA isolation and hydrolysis/dephosphorylation
Procedure: Breast tumor and adjacent normal tissue were obtained from the frozen tumor bank of the City of Hope Pathology Core. A pea-sized section (˜100 mg) of tissue was minced and suspended in 1.2 mL of digestion buffer (100 mM NaCl, 10 mM Tris HCl, pH 8, 25 mM EDTA, pH 8, 0.5% SDS, 0.2 mg/mL proteinase K, 10 mM D-penicillamine) and incubated at 50° C. in a water bath for 12-18 h. DNA was then extracted using an equivalent volume of phenol/chloroform/isoamyl alcohol (25:24:1). The aqueous fraction was separated and 0.5 volumes of ammonium acetate and 2 volumes of 100% ethanol were added. The DNA was spooled, washed twice with 70% ethanol, pelleted, and resuspended in autoclaved 18.2 MΩ water. The enzymatic hydrolysis was carried out as described above.
Levels of CEdG in DNA extracted from either breast tumor or adjacent tissue in the absence of carbonyl scavenger were ˜1.5-2.0-fold higher; however, artifactual formation was inhibited by the addition of 10 mM D-penicillamine in two aliquots during both the cell lysis/DNA isolation and hydrolysis/dephosphorylation steps. ^15N-enriched isotopomers of CEdG differing from the unlabeled adducts by 5 amu were synthesized, which provided sufficient mass resolution for accurate and reproducible quantitation using the stable isotope dilution method.

SMILES: CC(Nc1nc2c(ncn2[C@H]2C[C@H](O)[C@@H](CO)O2)c(=O)[nH]1)C(=O)O (single isomer, unassigned) [CEdG-A, N^2-(1-carboxyethyl)-2′-deoxyguanosine]
- racemization of the sidechain stereocenter / interconversion of CEdG isomers A and B [1]: No racemization

SMILES: CC(Nc1nc2c(ncn2[C@H]2C[C@H](O)[C@@H](CO)O2)c(=O)[nH]1)C(=O)O (single isomer, unassigned) [CEdG-B, N^2-(1-carboxyethyl)-2′-deoxyguanosine]
- racemization of the sidechain stereocenter / interconversion of CEdG isomers A and B [1]: No racemization

SMILES: N=C(N)NN [AG, aminoguanidine]
- CEdG adduct levels after hydrolysis/dephosphorylation (calf thymus DNA; 10 mM AG added prior to sample processing, without scavenger 60-66 CEdG/10^6 dG): 45-50 CEdG/10^6 guanines
- CEdG levels after mock proteolysis and hydrolysis/dephosphorylation (calf thymus DNA; 10 mM AG in two aliquots, without scavenger 80-100 CEdG/10^6 guanines): drop in measured CEdG levels

SMILES: CC(C)(S)[C@@H](N)C(=O)O [D-penicillamine]
- artifactual CEdG formation [2]: inhibited
